Test results reported in patent US20250154193A1, “STEROID COMPOUND, AND PREPARATION METHOD THEREFOR AND APPLICATION THEREOF” (CHOLESGEN (SHANGHAI) CO., LTD., priority 2022, published 2025).

Assays:
[1] = Liver microsomal metabolic stability assay; assay type: in vitro ADME; details: rat liver microsomes, NADPH, 37° C., 0-60 minutes; read-out: Rat microsomal metabolic half-life (t1/2)
Procedure: PBS solution (100 mM), MgCl2 solution (100 mM), and NADPH solution (20 mM) were prepared respectively. Compound and testosterone (positive control) stock solutions were then prepared with dimethyl sulfoxide (DMSO), diluted to 100 µM with methanol for sample incubation, and stored at −10 to −30° C. 12.5 μL of rat liver microsomes (purchased from XenoTech, Cat. No.: R1000, Lot No.: 1310030, specification: 20 mg/mL), 432.5 µL of PBS solution (100 mM), 25 µL of NADPH solution (20 mM), and 25 μL of MgCl2 solution (100 mM) were added to a 96-well plate, mixed well, and pre-incubated at 37° C. for 5 minutes. 5 µL of substrate (test compound) solution was added to start the reaction. At specified time points of 0, 5, 15, 30, 45, and 60 minutes (0 and 60 minutes for the negative control group), 50 µL of the incubated samples were added to a stop plate containing 100 µL of ice-cold stop solution, vortexed for 1 minute to inactivate the reaction, and stored at −60 to −90° C. for subsequent analysis. Sample analysis of the test compound and the control compound testosterone was performed using LC-MS/MS method. Chromatographic peaks were integrated, calculated, and processed using Analyst software. Semi-quantitative analysis was performed for both the test compound and the control compound testosterone by calculating peak area ratios.

SREBP pathway = assay: SREBP luciferase reporter gene system (SRE-luciferase assay) in Huh-7/SRE-Luc cells; assay type: cell-based; details: Homo sapiens, sterol-deficient medium, compound treatment 16 hours, luciferase/GFP ratio
Procedure: Huh-7/SRE-Luc, a human hepatocellular carcinoma cell line, was grown in a culture medium containing DMEM, 10% fetal bovine serum, 100 units/mL penicillin, 100 µg/mL streptomycin, and 200 μg/mL G418.
The Huh-7/SRE-Luc cell line is a human hepatocellular carcinoma cell line Huh-7 stably expressing LDLR promoter-luciferase and green fluorescent protein (GFP). The LDLR promoter region contains a sterol regulatory element (SRE) that can effectively and sensitively respond to the regulation of the transcription factor SREBP. The GFP signal serves as an internal reference to indicate changes in cell number. Therefore, this cell line can be used to screen for active small molecules that regulate the SREBP signaling pathway. […] Cells were incubated in a sterol-deficient medium (5% lipoprotein-deficient serum, 2 μM Lovastatin, 10 μM mevalonate) and treated with corresponding concentrations of compounds for 16 hours. After compound treatment, the cells were lysed with lysis buffer (E397A, Promega), followed by the addition of luciferase substrate (E1500, Promega). The SRE-driven luciferase activity was measured using a BioTek Synergy HTX microplate reader (including but not limited to this type of instrument). The fluorescence intensity of enhanced green fluorescent protein (EGFP) was also measured using the BioTek microplate reader (including but not limited to this type of instrument) and used as an internal reference. The ratio of SRE-driven luciferase activity to GFP fluorescence intensity was used as an indicator of SREBP pathway activity. The test data of each test compound was analyzed using Prism software to obtain the IC50 parameter of the compound.
The inhibitory effect of the compounds of the present disclosure on the SREBP pathway was tested by the method of bioassay example 2. The concentration gradient of each compound was designed as 0.01, 0.03, 0.1, 0.3, 1.0, 3.0, and […], with DMSO as a vehicle control.

Row | Structure (SMILES) | half-life at 1 µM [1] | IC50 (SREBP pathway)
1 | C[C@H](CCC[C@@H](O)c1ccccc1F)[C@H]1CC[C@H]2[C@@H]3CC[C@H]4[C@@H](O)[C@@H](O)CC[C@]4(C)[C@H]3CC[C@]12C (single isomer, unassigned) [compound 279, 24-[R-(2-fluorophenyl)(hydroxy)methyl]-5α-cholan-30,40-diol or 24-[S-(2-fluorophenyl)(hydroxy)methyl]-5α-cholan-30,40-diol] | 55.3 min | 0.196 µM
2 | C[C@H](CCCC(C)(C)O)[C@H]1CC[C@H]2[C@@H]3CC[C@H]4C[C@@H](O)CC[C@]4(C)[C@H]3CC[C@]12C [compound 185, cholest-3β,25-diol] | 190 min | 0.233 µM
3 | C[C@H](CCCC(C)(C)O)[C@H]1CC[C@H]2[C@@H]3CC[C@H]4[C@@H](O)[C@@H](O)CC[C@]4(C)[C@H]3CC[C@]12C [compound 198, 5α-Cholest-30,40,25-triol] | 71.9 min | 0.106 µM
4 | C[C@H](CCCC(C)(C)O)[C@H]1CC[C@H]2[C@@H]3CC[C@H]4[C@H](O)[C@@H](O)CC[C@]4(C)[C@H]3CC[C@]12C [compound 204, 5α-cholest-3β,4α,25-triol] | 238 min | 0.395 µM
5 | C[C@H](CCCC(C)(C)O)[C@H]1CC[C@H]2[C@@H]3C(=O)C[C@H]4C[C@@H](O)CC[C@]4(C)[C@H]3CC[C@]12C [compound 216, 3P,25-dihydroxy-5α-cholest-7-one] | 23.1 min | 0.379 µM
6 | C[C@H](CCCC(C)(C)O)[C@H]1CC[C@H]2[C@@H]3CC[C@H]4C(=O)[C@@H](O)CC[C@]4(C)[C@H]3CC[C@]12C [compound 238, 3β,25-Dihydroxy-5α-cholest-4-one] | 75.8 min | 0.049 µM
7 | C[C@H](CCCC(C)(C)O)[C@H]1CC[C@H]2[C@H]3[C@H](CC[C@]12C)[C@@]1(C)CC[C@H](O)[C@H](O)[C@@H]1CC3(F)F [compound 274, (1R,3aS,3bS,5aR,6R,7S,9aR,9bS,11aR)-4,4-difluoro-1-[(2R)-6-hydroxy-6-methylheptan-2-yl]-9a,11a-dimethylhexadecahydro-1H-cyclopenta[1,2-a]phenanthrene-6,7-diol] | > 186 min | 0.313 µM
8 | C[C@H](CCCC(O)c1c(F)cc(F)cc1F)[C@H]1CC[C@H]2[C@@H]3CC[C@H]4[C@@H](O)[C@@H](O)CC[C@]4(C)[C@H]3CC[C@]12C (stereo partly drawn) [compound 275, 24-[(2,4,6-difluorophenyl)(hydroxy)methyl]-5α-cholan-3β,4β-diol] | 91.2 min | 0.141 µM
9 | C[C@H](CCCC(O)c1cccc(F)c1)[C@H]1CC[C@H]2[C@@H]3CC[C@H]4[C@@H](O)[C@@H](O)CC[C@]4(C)[C@H]3CC[C@]12C (stereo partly drawn) [compound 281, 24-[(3-fluorophenyl)(hydroxy)methyl]-5α-cholan-3β,4β-diol] | 70.1 min | 0.111 µM
10 | C[C@H](CCCC(O)c1c(F)cccc1F)[C@H]1CC[C@H]2[C@@H]3CC[C@H]4[C@@H](O)[C@@H](O)CC[C@]4(C)[C@H]3CC[C@]12C (stereo partly drawn) [compound 284, 24-[(2,6-difluorophenyl)(hydroxy)methyl]-5α-cholan-3β,4β-diol] | > 120 min | 0.0874 µM
11 | COc1ccccc1C(O)CCC[C@@H](C)[C@H]1CC[C@H]2[C@@H]3CC[C@H]4[C@@H](O)[C@@H](O)CC[C@]4(C)[C@H]3CC[C@]12C (stereo partly drawn) [compound 287, 24-[Hydroxy(2-methoxyphenyl)methyl]-5α-cholan-30,40-diol] | 76.3 min | 0.159 µM
12 | C[C@H](CCCC(O)c1c(F)cccc1F)[C@H]1CC[C@H]2[C@@H]3CC[C@H]4C(=O)[C@@H](O)CC[C@]4(C)[C@H]3CC[C@]12C (stereo partly shown) [compound 298] | 19 min | 0.028 µM
13 | C[C@H](CCCC(O)c1c(F)cccc1F)[C@H]1CC[C@H]2[C@H]3[C@H](CC[C@]12C)[C@@]1(C)CC[C@H](O)[C@H](O)[C@@H]1CC3(F)F (stereo partly drawn) [compound 300, (1R,3aS,3bS,5aR,6R,7S,9aR,9bS,11aR)-1-[(2R)-6-(2,6-difluorophenyl)-6-hydroxyhexan-2-yl]-4,4-difluoro-9a,11a-dimethylhexadecahydro-1H-cyclopenta[1,2-α]phenanthrene-6,7-diol] | 24.1 min | 0.036 µM
14 | C[C@H](CCCC(C)(C)O)[C@H]1CC[C@H]2[C@H]3[C@H](CC[C@]12C)[C@@]1(C)CC[C@H](O)C(=O)[C@@H]1CC3(F)F [compound 302, (1R,3aS,3bS,5aR,7S,9aR,9bS,11aR)-4,4-difluoro-7-hydroxy-1-[(2R)-6-hydroxy-6-methylheptan-2-yl]-9a,11a-dimethylhexadecahydro-1H-cyclopenta[1,2-α]phenanthren-6-one] | 58.7 min | 0.035 µM
15 | COc1cc(F)ccc1C(O)CCC[C@@H](C)[C@H]1CC[C@H]2[C@@H]3CC[C@H]4[C@@H](O)[C@@H](O)CC[C@]4(C)[C@H]3CC[C@]12C (stereo partly drawn) [compound 306, 24-[(4-fluoro-2-methoxyphenyl)(hydroxy)methyl]-5α-cholan-3β,4β-diol] | 104 min | 0.08 µM
16 | COc1ccccc1C(O)CCC[C@@H](C)[C@H]1CC[C@H]2[C@@H]3CC[C@H]4C[C@@H](O)CC[C@]4(C)[C@H]3CC[C@]12C (stereo partly drawn) [compound 312, 24-[hydroxy(2-methoxyphenyl)methyl]-5α-cholan-3β-ol] |  | 0.18 µM
17 | C[C@H](CCCC(C)(C)O)[C@H]1CC[C@H]2[C@@H]3CC[C@H]4[C@@H](O)[C@@H](OC(=O)CO)CC[C@]4(C)[C@H]3CC[C@]12C [compound 313, (1R,3aS,3bS,5aR,6R,7S,9aR,9bS,11aR)-6-hydroxy-1-[(2R)-6-hydroxy-6-methylheptan-2-yl]-9a,11a-dimethylhexadecahydro-1H-cyclopenta[1,2-i]phenanthren-7-yl hydroxyacetate] |  | 0.07 µM
18 | C[C@H](CCCC(O)c1ccc(F)cc1)[C@H]1CC[C@H]2[C@@H]3CC[C@H]4[C@@H](O)[C@@H](O)CC[C@]4(C)[C@H]3CC[C@]12C (stereo partly drawn) [compound 316, 24-[(4-fluorophenyl)(hydroxy)methyl]-5α-cholan-3β,4β-diol] |  | 0.1 µM
19 | COc1ccccc1C(O)CCC[C@@H](C)[C@H]1CC[C@H]2[C@@H]3C(=O)C[C@H]4[C@@H](O)[C@@H](O)CC[C@]4(C)[C@H]3CC[C@]12C (stereo partly drawn) [compound 320, 4β-hydroxy-3β-hydroxy-24-[hydroxy(2-methoxyphenyl)methyl]-5α-cholan-7-one] |  | 0.16 µM
20 | COC(=O)C1CC[C@@]2(C)[C@@H](CC[C@@H]3[C@@H]2CC[C@]2(C)[C@@H]([C@H](C)CCCC(C)(C)O)CC[C@@H]32)C1 (stereo partly drawn) [compound 321, methyl 25-hydroxy-5α-cholest-3-carboxylate] |  | 7.2 µM
21 | C[C@H](CCCC(O)c1ccccc1Cl)[C@H]1CC[C@H]2[C@@H]3CC[C@H]4[C@@H](O)[C@@H](O)CC[C@]4(C)[C@H]3CC[C@]12C (stereo partly drawn) [compound 322, 24-[(2-chlorophenyl)(hydroxy)methyl]-5α-cholan-3β,4β-diol] |  | 0.61 µM
22 | Cc1ccccc1C(O)CCC[C@@H](C)[C@H]1CC[C@H]2[C@@H]3CC[C@H]4[C@@H](O)[C@@H](O)CC[C@]4(C)[C@H]3CC[C@]12C (stereo partly drawn) [compound 323, 24-[hydroxy(2-methylphenyl)methyl]-5α-cholan-3β,4β-diol] |  | 0.25 µM
